The values below come from ChEMBL document CHEMBL5346878, “SAR study of piperidine derivatives as inhibitors of 1,4-dihydroxy-2-naphthoate isoprenyltransferase (MenA) from Mycobacterium tuberculosis” (Eur J Med Chem, 2023).

For test [1], the system named is Mycobacterium tuberculosis. As to the kind of experiment: Displacement of 14C-SAM from Mycobacterium tuberculosis membrane MenG assessed as reduction in MK8 synthesis at 12.5 uM incubated for 1 hr by liquid scintillation counting method. The format is cell membranes.
Test [2] concerns Mycobacterium tuberculosis. As to the kind of experiment: Antibacterial activity against Mycobacterium tuberculosis H37Rv (ATCC 27294) assessed as bacterial growth inhibition incubated for 7 days by microdilution alamarBlue assay. As to conditions: 168 h, time 7 day. It counts as functional.
Test [3] has as its target T1, 1,4-dihydroxy-2-naphthoate octaprenyltransferase (Mycobacterium tuberculosis, UniProt P9WIP3).
T1 sequence (P9WIP3 whole entry): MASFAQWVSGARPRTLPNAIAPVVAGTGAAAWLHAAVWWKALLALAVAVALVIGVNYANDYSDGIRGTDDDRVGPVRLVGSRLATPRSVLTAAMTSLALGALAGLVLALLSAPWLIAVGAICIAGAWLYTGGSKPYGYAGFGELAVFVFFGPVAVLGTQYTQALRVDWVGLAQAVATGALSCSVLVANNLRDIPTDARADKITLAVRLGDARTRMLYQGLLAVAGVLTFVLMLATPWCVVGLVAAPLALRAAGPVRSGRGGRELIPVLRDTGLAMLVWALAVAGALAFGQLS
Kind of test: Displacement of [3H]FPP from Mycobacterium tuberculosis mc2 6230 membrane protein MenA incubated for 30 mins by liquid scintillation spectrometry. The format is cell membranes. In general terms: Displacement assays read how much labelled ligand stays bound in the presence of the test substance.

Test [4] deals with Mycobacterium tuberculosis. As to the kind of experiment: Antibacterial activity against Mycobacterium tuberculosis mc2 6230 assessed as bacterial growth inhibition incubated for 5 days by absorbance based assay. The note with it: mc2 6230, 120 h; for GI50: time 5 day. It counts as functional, organism-based.
Test [5] concerns Mycobacterium tuberculosis. Kind of test: Synergistic bactericidal activity against Mycobacterium tuberculosis H37RvLP (ATCC 25618) assessed as fold increase in activity at <12.5 uM in presence of IMP. It counts as functional.
The subject of test [6] is Mycobacterium tuberculosis. Kind of test: Synergistic bactericidal activity against Mycobacterium tuberculosis H37RvLP (ATCC 25618) incubated for 14 days in presence of CPZ relative to control. The format is functional. The note with it: time 14 day.
For test [7], the system named is Mycobacterium tuberculosis. As to the kind of experiment: Bactericidal activity against Mycobacterium tuberculosis H37RvLP (ATCC 25618) at 50 to 100 uM. The note with it: dose 50-100 µM. It counts as functional, organism-based.
For test [8], the system named is Mycobacterium tuberculosis. Kind of test: Synergistic bactericidal activity against Mycobacterium tuberculosis H37RvLP (ATCC 25618) assessed as fold increase in activity upto 100 uM in presence of CPZ. It counts as functional.
Test [9] relates to Mycobacterium tuberculosis. As to the kind of experiment: Antibacterial activity against Mycobacterium tuberculosis assessed as bacterial growth inhibition. The format is functional.
Test [10] concerns Mycobacterium tuberculosis. As to the kind of experiment: Synergistic bactericidal activity against Mycobacterium tuberculosis H37RvLP (ATCC 25618) at 25 uM in presence of IMP. It counts as functional, organism-based.
The test system of test [11] is Mycobacterium tuberculosis. As to the kind of experiment: Synergistic bactericidal activity against Mycobacterium tuberculosis H37RvLP (ATCC 25618) at 25 uM in presence of Q203. It counts as functional, organism-based.

A word on the MIC90: it is the lowest concentration that inhibits either 90% of growth or 90% of the strains tested, depending on the study. One may read the IC50 as the concentration needed to halve the response being measured. For orientation: GI50 means the concentration that inhibits growth by half. Usually MIC stands for the least concentration at which growth counts as inhibited.

SMILES strings stand for the structures. ≈ marks a conversion by molar mass, not a printed value. Calls of active or inactive are those of the source. The calls are words filed in the database; no cut-off is given here.

With `COc1ccc(-c2cc(NC(=O)c3ccc(Cl)cc3F)ccc2OC)cc1`, the inhibition entry in [1] was “Active”. In addition, in test [2], the MIC90 was found to be 4.8 µg/mL (≈ 12.4 µM).

Regarding `CCCN(C)c1ccc(CN2CCC3(CC2)CC(Oc2ccc(Cl)cc2)CO3)cc1` (stereo unspecified), the IC50 in [3] (read-out: IC50) was above 50 µM. Moreover, in test [4], the GI50 is 25 µM.

Regarding `CCCN(C)c1ccc(CN2CCC(COC3[C@H]4C[C@@H]5C[C@@H](C[C@H]3C5)C4)CC2)cc1` (stereo partly specified), the IC50 in test [3] (read-out: IC50) is 23 µM. Moreover, the GI50 in [4] came to 6 µM.

Take `CCCN(C)c1ccc(CN2CCC(COc3cccc(Cc4ccc(Cl)cc4)c3)CC2)cc1`: the half-inhibitory concentration (IC50) in [3] (read-out: IC50) stood at 55 µM. The concentration for 50% growth inhibition (GI50) in [4] is above 226 µM.

Regarding `CCCN(C)c1ccc(CN2CCC(COc3ccc(Br)cc3)CC2)cc1`, the IC50 in test [3] (read-out: IC50) worked out at 12 µM. The GI50 in test [4] is 11 µM.

Regarding `CCCN(C)c1ccc(CN2CCC(COc3cc(=O)n(C)c4ccccc34)CC2)cc1`, the IC50 in test [3] (read-out: IC50) is 102 µM. The GI50 in test [4] is 11 µM.

As to `CCCN(C)c1ccc(CN2CCC(COc3cccc(Br)c3)CC2)cc1`, the inhibition entry in test [1] was “inactive”. In addition, the IC50 in test [3] (read-out: IC50) came out at 12 µM. Further, the GI50 in [4] worked out at 14 µM.

For the compound `c1ccc(Oc2cccc(OCC3CCN(Cc4ccc(N5CCOCC5)cc4)CC3)c2)cc1`, the inhibition entry in test [1] is “inactive”. The GI50 in test [4] was found to be 21 µM.

On to `CCCN(C)c1ccc(CN2CCC(COc3ccccc3Cl)CC2)cc1`, for which the half-maximal inhibitory concentration (IC50) in test [3] (read-out: IC50) was found to be 31 µM. In test [4], the GI50 amounted to 39 µM.

With `CCCN(C)c1ccc(CN2[C@@H]3CC[C@H]2CC(Oc2cccc(Oc4ccccc4)c2)C3)cc1` (stereo partly specified), the IC50 in test [3] (read-out: IC50) was found to be 27 µM. For the same compound, in [4], the GI50 amounted to 17 µM.

Turning to `CCCN(C)c1ccc(CN2CCC(COc3cccc(Oc4ccccc4)c3)CC2)cc1`, the “fold change (FC)” value is on record as above 3 in test [5] and 1 in test [8]. Moreover, the inhibition entry in test [1] is “inactive”. Moreover, the “inhibition (INH)” value in [6] was found to be 100%. For the same compound, the half-inhibitory concentration (IC50) in test [3] (read-out: IC50) was determined as 13 µM. Moreover, the result in test [7] was Active. In addition, in test [4], the GI50 worked out at 8 µM.

With `CCCN(C)c1ccc(CN2CCC(COc3ccccc3)CC2)cc1`, in test [3] (read-out: IC50), the concentration for half-maximal inhibition (IC50) turned out to be 64 µM. Besides, in [4], the GI50 came to 27 µM.

Take `CCCN(C)c1ccc(CN2CCC(CSc3ccccc3C(=O)OC)CC2)cc1`: in test [1], the inhibition result is “inactive”.

Consider `COc1ccc2ccc(OCCCCCCCCNCCc3ccc(F)cc3)cc2c1`, for which, in test [9], the minimal inhibitory concentration (MIC) was below 14.2 µM.

In the case of `CCCN(C)c1ccc(CN2CCC(COc3ccc(Cl)cc3Cl)CC2)cc1`, the GI50 in test [4] is 13 µM.

For `CCCN(C)c1ccc(CN2CCC(COc3ccc(F)cc3)CC2)cc1`, the IC50 in test [3] (read-out: IC50) worked out at 33 µM. Besides, the GI50 in [4] turned out to be 14 µM.

`CCCN(C)c1ccc(CN2CCC(CSc3ccccc3)CC2)cc1`: the half-maximal inhibitory concentration (IC50) in test [3] (read-out: IC50) amounted to 18 µM.

In the case of `CCCN(C)c1ccc(CN2CCC(COc3c(F)cccc3F)CC2)cc1`, the 50% inhibitory concentration (IC50) in [3] (read-out: IC50) worked out at 25 µM. The 50% growth inhibitory concentration (GI50) in [4] was 28 µM.

`CCCN(C)c1ccc(CN2C[C@@H]3C[C@H]2CN3Cc2ccc(N3CCOCC3)cc2)cc1`: the IC50 in test [3] (read-out: IC50) is above 50 µM. In [4], the concentration for 50% growth inhibition (GI50) was 149 µM.

Consider `CCCN(C)c1ccc(CN2CCC(COc3ccccc3F)CC2)cc1`, for which, in test [3] (read-out: IC50), the IC50 was determined as 18 µM. In [4], the concentration for 50% growth inhibition (GI50) came out at 35 µM.

As for `CCCN(C)c1ccc(CN2CCC(COc3cccc(C(=O)N4CCOCC4)c3)CC2)cc1`, in test [3], the IC50 entry is reported as “Not Active”. Also, in test [4], the GI50 was above 215 µM.

On to `CCCN(C)c1ccc(CN2CCCC(Oc3cccc(Oc4ccccc4)c3)C2)cc1` (stereo unspecified), for which the concentration for half-maximal inhibition (IC50) in [3] (read-out: IC50) amounted to 24 µM. Moreover, the GI50 in test [4] worked out at 37 µM.

Regarding `CCCN(C)c1ccc(CN2CCC(COc3ccc4ccccc4c3)CC2)cc1`, in test [3] (read-out: IC50), the concentration for half-maximal inhibition (IC50) was determined as 21 µM. The 50% growth inhibitory concentration (GI50) in test [4] was 7 µM.

On to `CCCN(C)c1ccc(CN2CCC(COc3nc4ccc(F)cc4s3)CC2)cc1`, for which the values for the 50% inhibitory concentration (IC50) in [3] (read-out: IC50) and in test [4] were 31 µM and 11 µM, respectively.

For `CCCN(C)c1ccc(CN2CCC(COc3ccc(Cl)cc3)CC2)cc1`, the result in test [10], in test [7] and in test [11] was Active. For the same compound, the inhibition entry in test [1] was “inactive”. Moreover, the “inhibition (INH)” value in test [6] was 100%. Moreover, the concentration for half-maximal inhibition (IC50) in test [3] (read-out: IC50) stood at 22 µM. In addition, the “fold change (FC)” value in test [8] stood at 1. The GI50 in test [4] turned out to be 10 µM.

`CCCN(C)c1ccc(CN2CCC(COc3cccc(C(=O)c4ccc(Cl)cc4)c3)CC2)cc1`: the IC50 in [3] (read-out: IC50) was found to be 14 µM. Moreover, the 50% growth inhibitory concentration (GI50) in test [4] was 8 µM.

Regarding `CCCN(C)c1ccc(CN2CCC(COc3ccc(C)cn3)CC2)cc1`, the IC50 in test [3] (read-out: IC50) was above 50 µM. Moreover, the GI50 in test [4] amounted to 31 µM.

Regarding `CCCN(C)c1ccc(CN2CCC(COc3ccc(OC)cc3)CC2)cc1`, the inhibition entry in [1] was “inactive”. Further, the GI50 in test [4] came to 18 µM.

`C=CCN(C)CCCCCCCCOc1ccc2ccc(OC)cc2c1`: in test [9], the MIC turned out to be 8.4 µM (≈ 2.99 µg/mL).

For `COc1ccc2ccc(OCCCCCCCCN3CCCCC3)cc2c1`, the minimum inhibitory concentration (MIC) in test [9] amounted to 8.1 µM (≈ 2.99 µg/mL).

Consider `CCCN(C)c1ccc(CN2CCC(COc3cccc(Nc4ccccc4C)c3)CC2)cc1`, for which the inhibition result in [1] was “inactive”. For the same compound, the IC50 in [3] (read-out: IC50) was 22 µM. The GI50 in [4] worked out at 16 µM.

For `CCCN(C)c1ccc(CN2CCC(COc3noc4ccccc34)CC2)cc1`, the inhibition result in [1] was “inactive”.

In the case of `CCCN(C)c1ccc(CN2CCC3(CC2)CC(Oc2cccc(Oc4ccccc4)c2)CO3)cc1` (stereo unspecified), the GI50 in [4] stood at 9 µM.
